# Patent US8859505B2, “Cysteine protease inhibitors” (Medivir UK Ltd, priority 2010, dated 2014)
# Columns and labels:
# human cathepsin S = biological target: T1, human cathepsin S (Homo sapiens, UniProt P25774); test: Cathepsin S Ki determination; type: biochemical; conditions: baculovirus-expressed enzyme, boc-Val-Leu-Lys-AMC substrate, pH 6.5; read-out: Ki Cat. S
# T1 construct: made in house; host or cells: baculovirus expression system
# Procedure: The assay uses baculovirus-expressed human cathepsin S and the boc-Val-Leu-Lys-AMC fluorescent substrate available from Bachem in a 384 well plate format, in which 7 test compounds can be tested in parallel with a positive control comprising a known cathepsin S inhibitor comparator.
# 280 μL/well of 12.5% DMSO are added to rows B-H of two columns of a 96 deep well polypropylene plate. 70 μL/well of substrate is added to row A. 2×250 μL/well of assay buffer (100 mM Na phosphate, 100 mM NaCl, pH 6.5) is added to row A, mixed, and double diluted down the plate to row H.
# 100 μL/well of assay buffer is added to columns 2-5 and 7-12 of 4 rows of a 96 well V bottom polypropylene plate. 200 μL/well of assay buffer is added to columns 1 and 6.
# 2 μl of each 10 mM test compound is added to a separate well on row A, columns 1-10. Add 90 μl assay buffer containing 1 mM DTT and 2 nM cathepsin S to each well of rows B-H and 180 μl to row A. Mix row A using a multichannel pipette and double dilute to row G. Mix row H and read in the fluorescent spectrophotometer. The readings are Prism data fitted to the competitive inhibition equation, setting S=100 μM and KM=100 μM to obtain an estimate of the up to a maximum of 100 μM.
# The second test compound is added to column 6 of the top row, the third to column 1 of the second row etc. Add 1 μL of comparator to column 6 of the bottom row. Mix column 1 and double dilute to column 5. Mix column 6 and double dilute to column 10.
# Using an 8-channel multistepping pipette set to 5×10 μL, distribute 10 μL/well of substrate to the 384 well assay plate. Distribute the first column of the substrate dilution plate to all columns of the assay plate starting at row A. The tip spacing of the multichannel pipette will correctly skip alternate rows. Distribute the second column to all columns starting at row B.
# Using a 12-channel multistepping pipette set to 4×10 μL, distribute 10 μL/well of inhibitor to the 384 well assay plate. Distribute the first row of the inhibitor dilution plate to alternate rows of the assay plate starting at A1. The tip spacing of the multichannel pipette will correctly skip alternate columns. Similarly, distribute the second, third and fourth rows to alternate rows and columns starting at A2, B1 and B2 respectively.
# Mix 20 mL assay buffer and 20 μL 1M DTT. Add sufficient cathepsin S to give 2 nM final concentration.
# Using the a distributor such as a Multidrop 384, add 30 μL/well to all wells of the assay plate and read in fluorescent spectrophotometer such as an Ascent.
# Fluorescent readings, (excitation and emission wavelengths 390 nm and 460 nm respectively, set using bandpass filters) reflecting the extent of enzyme cleavage of the fluorescent substrate, […] the inhibitor, are linear rate fitted for each well.
# Fitted rates for all wells for each inhibitor are fitted to the competitive inhibition equation using SigmaPlot 2000 to determine V, Km and Ki values.
# (§1) Potential inhibitors are screened using the above assay with variable concentrations of test compound. Reactions were initiated by addition of enzyme to buffered solutions of substrate and inhibitor. Ki values were calculated according to equation 1.
# (§2) [formula] where v0 is the velocity of the reaction, V is the maximal velocity, S is the concentration of substrate with Michaelis constant of KM, and I is the concentration of inhibitor.
# [1] = biological target: T2, human recombinant cathepsin K (Homo sapiens, UniProt P43235); test: Determination of cathepsin K proteolytic catalytic activity (Ki); type: biochemical; conditions: fluorogenic substrate H-D-Ala-Leu-Lys-AMC; read-out: Ki Cat. K
# T2 construct: made in house; host or cells: not fixed: E coli, Pichia or Baculovirus systems named as options
# T2 sequence (P43235 115-329): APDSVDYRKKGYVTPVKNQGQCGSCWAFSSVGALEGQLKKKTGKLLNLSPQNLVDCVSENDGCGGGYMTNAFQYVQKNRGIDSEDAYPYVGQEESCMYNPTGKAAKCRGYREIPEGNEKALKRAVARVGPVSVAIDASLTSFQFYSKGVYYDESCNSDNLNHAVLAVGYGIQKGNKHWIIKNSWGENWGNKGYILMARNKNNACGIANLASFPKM
# Procedure: Convenient assays for cathepsin K are carried out using human recombinant enzyme, such as that described in PDB. • ID BC016058 standard; mRNA; HUM; 1699 BP. • DE Homo sapiens cathepsin K (pycnodysostosis), mRNA (cDNA clone MGC:23107 • RX MEDLINE;. RX PUBMED; 12477932. • DR RZPD; IRALp962G1234. • DR SWISS-PROT; P43235;
# The recombinant cathepsin K can be expressed in a variety of commercially available expression systems including E coli, Pichia and Baculovirus systems. The purified enzyme is activated by removal of the prosequence by conventional methods.
# Standard assay conditions for the determination of kinetic constants used a fluorogenic peptide substrate, typically H-D-Ala-Leu-Lys-AMC, and were determined in either 100 mM Mes/Tris, pH 7.0 containing 1 mM EDTA and 10 mM 2-mercaptoethanol or 100 mMNa phosphate, imM EDTA, 0.1% PEG4000 pH 6.5 or 100 mM Na acetate, pH 5.5 containing 5 mM EDTA and 20 mM cysteine, in each case optionally with […] as stabiliser. The enzyme concentration used was 5 nM. The stock substrate solution was prepared at 10 mM in DMSO. Screens were carried out at a fixed substrate concentration of 60 μM and detailed kinetic studies with doubling dilutions of substrate from 250 μM. The total DMSO concentration in the assay was kept below 3%. All assays were conducted at ambient temperature. Product fluorescence (excitation at 390 nm, emission at 460 nm) was monitored with a Labsystems Fluoroskan Ascent fluorescent plate reader. Product progress curves were generated over 15 minutes following generation of AMC product.
# as §1, §2
# human cathepsin L = human cathepsin L (Homo sapiens, UniProt P07711); test: Cathepsin L Ki; type: biochemical; conditions: H-D-Val-Leu-Lys-AMC substrate, pH5.5; read-out: Ki Cat. L
# Sequence of human cathepsin L (P07711 114-333): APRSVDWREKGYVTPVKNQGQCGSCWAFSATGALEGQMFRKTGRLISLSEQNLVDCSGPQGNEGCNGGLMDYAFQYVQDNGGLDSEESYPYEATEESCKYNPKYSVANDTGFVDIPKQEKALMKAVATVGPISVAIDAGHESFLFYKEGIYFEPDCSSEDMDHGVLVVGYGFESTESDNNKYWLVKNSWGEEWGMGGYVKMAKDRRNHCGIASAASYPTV
# Procedure: The procedure above with the following amendments is used for the determination of Ki for cathepsin L.
# The enzyme is commercially available human cathepsin L (for example Calbiochem). The substrate is H-D-Val-Leu-Lys-AMC available from Bahcem. The assay buffer is 100 mM sodium acetate 1 mM EDTA, pH5.5) The DMSO stock (10 mM in 100% DMSO) is diluted to 10% in assay buffer. Enzyme is prepared at 5 nM concentration in assay buffer plus 1 mM dithiothreitol just before use. 2 μL of 10 mM inhibitor made up in 100% DMSO is dispensed into row A. 10 μL of 50 μM substrate (=1/200 dilution of 10 mM stock in DMSO, diluted in assay buffer).
# as §1, §2
# [2] = reference markers for permeability categories; cited from earlier work
# T1 sequence (P25774 115-331): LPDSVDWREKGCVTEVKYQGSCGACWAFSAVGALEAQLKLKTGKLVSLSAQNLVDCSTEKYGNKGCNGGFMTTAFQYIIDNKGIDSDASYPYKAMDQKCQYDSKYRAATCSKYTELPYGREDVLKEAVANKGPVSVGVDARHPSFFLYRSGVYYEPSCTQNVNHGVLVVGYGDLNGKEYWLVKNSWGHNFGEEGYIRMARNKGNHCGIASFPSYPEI
SMILES,Ki (human cathepsin S) [nM],Ki [1] [nM],Ki (human cathepsin L) [nM],absorption in man (%) [2] [%]
"NC(=O)C(=O)C1(NC(=O)[C@H](CC2CCC2)NC(=O)C2CC2(F)F)CCC1 (single isomer, unassigned) [Example A43-1]",1.3,280,4200,–
"NC(=O)C(=O)[C@]1(NC(=O)[C@H](CC2(F)CCCC2)NC(=O)c2cccc(-n3ccnc3)c2)C[C@H](F)C1 [Example A1, N-[1-(1-Aminooxalyl-3-fluoro-cyclobutylcarbamoyl)-2-(1-fluoro-cyclopentyl)-ethyl]-3-imidazol-1-yl-benzamide]",0.084,500,230,–
"CC1(C[C@H](NC(=O)C2CC2)C(=O)NC2(C(=O)C(N)=O)CCC2)CCCC1 [Example A2, Cyclopropanecarboxylic acid [1-(1-aminooxalyl-cyclobutylcarbamoyl)-2-(1-methyl-cyclopentyl)-ethyl]-amide]",0.3,630,1800,–
CC1(C[C@H](NC(=O)c2ccc(F)cc2)C(=O)NC2(C(=O)C(N)=O)CCC2)CCCC1 [Example A3],0.1,140,180,–
CCC(=O)N[C@@H](CC1(C)CCCC1)C(=O)NC1(C(=O)C(N)=O)CCC1 [Example A4],4.9,2300,12000,–
Cc1ccc(C(=O)N[C@@H](CC2(F)CCCC2)C(=O)NC2(C(=O)C(N)=O)CCC2)cn1 [Example A7],0.88,650,260,–
NC(=O)C(=O)C1(NC(=O)[C@H](CC2(F)CCCC2)NC(=O)c2ccc(F)cc2F)CCC1 [Example A17],0.67,490,490,–
CC1(C[C@H](NC(=O)C(C)(C)C(F)(F)F)C(=O)NC2(C(=O)C(N)=O)CCC2)CCCC1 [Example A24],1.2,300,3000,–
NC(=O)C(=O)C1(NC(=O)[C@H](CC2(F)CCCC2)NC(=O)C2(C(F)(F)F)CC2)CCC1 [Example A25],3.6,1300,14000,–
NC(=O)C(=O)C1(NC(=O)[C@H](CC2(F)CCCC2)NC(=O)C2(C(F)(F)F)CCC2)CCC1 [Example A28],31,15000,23000,–
CC1(C[C@H](NC(=O)C(C)(C)F)C(=O)NC2(C(=O)C(N)=O)CC(F)(F)C2)CCCC1 [Example A31],2.3,990,11000,–
NC(=O)C(=O)C1(NC(=O)[C@H](CC2(F)CCCC2)NC(=O)c2ccccn2)CCC1 [Example A34],0.77,180,710,–
NC(=O)C(=O)C1(NC(=O)[C@H](CC2(F)CCCC2)NC(=O)C2(C(F)(F)F)CC2)CC1 [Example A38],7.6,4600,> 200000,–
"CCOC(=O)NC(CC1(F)CCCC1)C(=O)NC1(C(=O)C(N)=O)CCC1 (stereo not drawn) [Example C6, [1-(1-Aminooxalyl-cyclobutylcarbamoyl)-2-(1-fluorocyclopentyl)-ethyl]-carbamic acid ethyl ester]",2.4,960,3700,–
N[C@@H](Cc1ccccc1)C(=O)O [L-Phenylalanine],–,–,–,100
OC[C@@H](O)[C@@H](O)[C@H](O)[C@H](O)CO [Mannitol],–,–,–,16
CN(Cc1cnc2nc(N)nc(N)c2n1)c1ccc(C(=O)N[C@@H](CCC(=O)O)C(=O)O)cc1 [Methotrexate],–,–,–,20

# Continued, in another order:
Ki (human cathepsin S) [nM],Ki [1] [nM],Ki (human cathepsin L) [nM],SMILES,absorption in man (%) [2] [%]
12,770,11000,"CC(C)(C)C[C@H](NC(=O)OC(C)(C)C)C(=O)N[C@]1(C(=O)C(N)=O)C[C@@H](F)C1 [Example C1, Tert-butyl(S)-1-((1r,3S)-1-(2-amino-2-oxoacetyl)-3-fluorocyclobutylamino)-4,4-dimethyl-1-oxopentan-2-ylcarbamate]",–
1.3,440,1700,CC(C)(C)OC(=O)NC(CC1(F)CCCC1)C(=O)NC1(C(=O)C(N)=O)CC(F)C1 (stereo not drawn) [Example C3],–
1.1,720,1700,CC1(C[C@H](NC(=O)OC(C)(C)C)C(=O)NC2(C(=O)C(N)=O)CCC2)CCCC1 [Example C4],–
2.8,1100,5300,"CCOC(=O)N[C@@H](CC1(F)CCCC1)C(=O)N[C@]1(C(=O)C(N)=O)C[C@@H](F)C1 [Example C5, [1-(1-Aminooxalyl-3-fluoro-cyclobutylcarbamoyl)-2-(1-fluoro-cyclopentyl)-ethyl]-carbamic acid ethyl ester]",–
6.4,2500,21000,"CCOC(=O)N[C@@H](CC1(F)CCCC1)C(=O)NC1(C(=O)C(N)=O)CCCC1 [Example C7, (S)-ethyl(1-((1-(2-amino-2-oxoacetyl)cyclopentyl)amino)-3-(1-fluorocyclopentyl)-1-oxopropan-2-yl)carbamate]",–
3.7,1200,2600,CC(C)(C)OC(=O)N[C@@H](CC1(F)CCCC1)C(=O)NC1(C(=O)C(N)=O)CC1 [Example C11],–
2.7,1900,3200,CC1(C[C@H](NC(=O)OC(C)(C)C)C(=O)NC2(C(=O)C(N)=O)CC2)CCCC1 [Example C12],–
2.1,640,2800,CC(C)OC(=O)N[C@@H](CC1(F)CCCC1)C(=O)NC1(C(=O)C(N)=O)CCC1 [Example C14],–
